Assay results taken from patent US20200390095A1, “USE OF ERYTHRITOL OR COMPOSITIONS COMPRISING SAME AS MAMMAL-SAFE INSECTICIDES” (Drexel University, priority 2014, published 2020).

Legend:
[1] = system: fruit flies; experiment: Longevity comparison of erythritol with other human-safe sweet alcohols; format: in vivo, Drosophila melanogaster; conditions: 1 M sweetener in standard fly food, 17 days; for longevity compared to sucrose control: log rank test
Description: An experiment was conducted to compare the effectiveness of erythritol with other human-safe sweet alcohols: D-mannitol, maltitol, sucrose, and xylitol. The concentration of all sweet alcohols were 1M. Flies were raised for 17 days on standard fly food that contained 1 M concentrations of each sweetener treatment. Death of flies was recorded daily as before; each treatment was replicated on three vials of 10 flies each for 30 subjects/treatment. Differences in longevity were analyzed using the Kaplan-Meier survival analysis log rank test, making all pairwise comparisons among treatments.

[2] = system: Drosophila melanogaster; experiment: Longevity assay of adult flies raised on food containing sweeteners; format: in vivo; conditions: repeat study with blue dye food
Description: All animals were cultured at 25° C., kept at 50-60% humidity, and were raised under a standard 12:12 light dark cycle. For each experimental treatment, n=30 flies were tested in groups of 10 per tube, and three tubes per treatment. Tubes were kept on their side to minimize subject becoming mired in the food. Foods were replaced twice a week. The total number of fruit flies used for these experiments was 780, with 300 used for two initial trials testing mortality among store-brand sweeteners, 210 used for repeating this with blue dye and pure erythritol, 120 for choice trials and 150 for concentration trials.
Standard Drosophila food for larval culturing consisted of water, cornmeal, yeast, molasses, and agar, as previously described (Chakraborty, et al., 2011, PLoS ONE 6: e20799). […] The addition of cornmeal and yeast assured the flies still received sufficient carbohydrates and protein in addition to any effects of the treatment additives.
Drosophila food was combined with an equal weight/volume (0.0238 g/ml) of one non-nutritive sweetener (TRUVIA, EQUAL, SPLENDA, SWEET'NLOW, or PUREVIA) or a control nutritive sweetener (controls: sucrose or corn syrup). Wild type (Canton S) larvae were initially raised on the standard food, and 0-12 hour old adult flies were transferred to foods containing one non-nutritive sweetener or a control treatment. […] The number of dead flies were scored daily.

[3] = system: Drosophila melanogaster; experiment: Concentration trials of erythritol on fly longevity; format: in vivo
Description: Standard fly foods were prepared as previously described, and then were treated with 2M, 1M, 0.5M and 0.1M concentrations of erythritol, using 0.5M sucrose as control. 0 to 24 hour-old Drosophila were placed on these foods and mortality was recorded daily for 35 days as above. Analyses were conducted with SPSS software v. 20 (IBM corporation 2011). Fly longevity data were analyzed using survival analysis with right-hand censoring of subjects that lived to the end of the study or were lost for reasons other than death. Test were run for differences in survival distributions [Pr(flies alive) versus insect age] using the log-rank (Mantel-Cox) test to make all pairwise comparisons among treatments within each experiment.

[4] = system: Drosophila melanogaster; experiment: Two-way choice experiments, longevity; format: in vivo; conditions: 30 days
Description: Foods containing 2 M erythritol, 1M erythritol and 1M sucrose were prepared for paired presentations in open choice tests. In each treatment one food type contained 0.05% brilliant blue FCF (Fisher 50-727-25). The blue dye allowed visual confirmation of feeding on the dyed food in the pair. The flies were presented with access to two food choices by using a modified cotton stopper with approximately a 1.5 cm diameter hole to connect each pair of food tubes. […] The final choice treatment was between blue 2M erythritol food and non-blue 1M sucrose food (this treatment provides a comparison with the 1 M erythritol/1 M erythritol treatment as a test of dilution of toxicity by alternative food sources; blue guts would confirm erythritol was being consumed in the presence of sucrose). The number of flies with visible blue gut contents and mortality daily were recorded for 30 days. Analyses were conducted with SPSS software v. 20 (IBM corporation 2011). Fly longevity data were analyzed using survival analysis with right-hand censoring of subjects that lived to the end of the study or were lost for reasons other than death. Test were run for differences in survival distributions [Pr(flies alive) versus insect age] using the log-rank (Mantel-Cox) test to make all pairwise comparisons among treatments within each experiment.

[5] = system: humans; conditions: oral consumption; cited from earlier work

With `OC[C@@H](O)[C@@H](O)[C@H](O)[C@H](O)CO` [D-mannitol] the “longevity compared to sucrose control” value [1] was “slightly but significantly reduced longevity”.
With `OC[C@@H](O)[C@@H](O)CO` [erythritol, (2R,3S)-butane-1,2,3,4-tetraol] the “longevity, erythritol versus TRUVIA treatment” value ([2]; 0.0238 g/ml) was “did not differ”, the “longevity compared to PUREVIA, EQUAL, sucrose and corn syrup” value ([2]; 0.0238 g/ml of each sweetener) was “significant decreases in longevity” and the “longevity compared to control food containing 0.5M sucrose” value ([3]; 0.1M erythritol in food, observations terminated at 35 days) was “no significant difference in longevity”. The “longevity compared to control food containing 0.5M sucrose” value ([3]; 0.5M erythritol in food, 35 days) was “significant reductions in longevity”, the “longevity compared to control food containing 0.5M sucrose” value ([3]; 1M erythritol in food, 35 days) was “significant reductions in longevity” and the “effect on longevity compared to all other treatments” value ([3]; 2M erythritol in food, 35 days) was “significant and severe effect on longevity”. The “longevity relative to sucrose:sucrose choice” value ([4]; choice between 1M sucrose and 1M erythritol) was “significantly decreased longevity”, the “longevity relative to sucrose:sucrose choice” value ([4]; choice between 1M sucrose and 2M erythritol) was “significantly reduced” and the “survival distributions, 2M erythritol/1M sucrose choice versus 1M erythritol/1M erythritol” value ([4]; choice chamber) was “nearly identical”. The mean fly longevity ([1]; mean ± SE) was 4.7 ± 0.15 days and the “tolerability of consumption by humans” value [5] was “very well tolerated”.
In the case of `OC[C@@H](O)[C@@H](O[C@H]1O[C@H](CO)[C@@H](O)[C@H](O)[C@H]1O)[C@H](O)[C@@H](O)CO` [maltitol], the “longevity compared to sucrose control” value [1] is reported as “did not differ from the control”.
In the case of `OC[C@@H](O)[C@H](O)[C@@H](O)CO` [xylitol], the “longevity compared to sucrose control” value [1] is reported as “did not differ from the control”.
